Measurements taken from PubChem BioAssay AID272 (DTP/NCI, 2004).
“And” between values parts separate entries of the source, which are not always exact repeats. Equal entries are not always repeated. Records with an inconclusive call do not appear.

System: Lewis lung carcinoma i.m., BDF1 mice, T/C %
Experiment: NCI In Vivo Anticancer Drug Screen. Data for tumor model Lewis Lung Carcinoma (intramuscular) in B6D2F1 (BDF1) mice
Method in brief: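 Compound given to mice with transplantable tumours; survival or tumour size compared against the vehicle control group, reported as T divided by C.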

[1] = endpoint: mean tumor weight (est.), dose: 25.0 mg/kg/injection, schedule: Q01DX011 (ip), vehicle: saline with Tween-80, higher = larger tumour
[2] = endpoint: median survival time, dose: 25.0 mg/kg/injection, schedule: Q01DX011 (ip), vehicle: saline with Tween-80, higher = longer survival
[3] = endpoint: mean tumor weight (est.), dose: 12.5 mg/kg/injection, schedule: Q01DX011 (ip), vehicle: saline with Tween-80, higher = larger tumour
[4] = endpoint: median survival time, dose: 12.5 mg/kg/injection, schedule: Q01DX011 (ip), vehicle: saline with Tween-80, higher = longer survival

SMILES: COc1cc([C@@H]2c3cc4c(cc3[C@H](O)[C@H]3COC(=O)[C@H]23)OCO4)cc(OC)c1OC
- T/C (endpoint: mean tumor weight, dose: 0.25 mg/kg/injection, schedule: Q01DX011 (ip), vehicle: Klucel (hydroxypropylcellulose) (HPC), higher = larger tumour): 100 % of control
- T/C (endpoint: mean tumor weight, dose: 0.5 mg/kg/injection, schedule: Q01DX011 (ip), vehicle: Klucel (hydroxypropylcellulose) (HPC), higher = larger tumour): 77 % of control
- T/C (endpoint: mean tumor weight, dose: 1.0 mg/kg/injection, schedule: Q01DX011 (ip), vehicle: Klucel (hydroxypropylcellulose) (HPC), higher = larger tumour): 105 % of control
- T/C (endpoint: median survival time, dose: 0.13 mg/kg/injection, schedule: Q01DX011 (ip), vehicle: Klucel (hydroxypropylcellulose) (HPC), higher = longer survival): 87 % of control
- T/C (endpoint: median survival time, dose: 0.25 mg/kg/injection, schedule: Q01DX011 (ip), vehicle: Klucel (hydroxypropylcellulose) (HPC), higher = longer survival): 107 % of control
- T/C (endpoint: median survival time, dose: 0.5 mg/kg/injection, schedule: Q01DX011 (ip), vehicle: Klucel (hydroxypropylcellulose) (HPC), higher = longer survival): 114 % of control

SMILES: CS(=O)(=O)c1cc(C(F)(F)F)cc([N+](=O)[O-])c1Cl
- T/C [1]: 108 % of control
- T/C (endpoint: mean tumor weight (est.), dose: 50.0 mg/kg/injection, schedule: Q01DX011 (ip), vehicle: saline with Tween-80, higher = larger tumour): 63 % of control
- T/C [2]: 115 % of control
- T/C (endpoint: median survival time, dose: 50.0 mg/kg/injection, schedule: Q01DX011 (ip), vehicle: saline with Tween-80, higher = longer survival): 111 % of control

SMILES: Cc1nc2ccccc2nc1CBr
- T/C (endpoint: mean tumor weight (est.), dose: 3.2 mg/kg/injection, schedule: Q01DX011 (ip), vehicle: saline with Tween-80, higher = larger tumour): 64 % of control
- T/C (endpoint: mean tumor weight (est.), dose: 6.3 mg/kg/injection, schedule: Q01DX011 (ip), vehicle: saline with Tween-80, higher = larger tumour): 80 % of control
- T/C [3]: 56 % of control
- T/C (endpoint: median survival time, dose: 3.2 mg/kg/injection, schedule: Q01DX011 (ip), vehicle: saline with Tween-80, higher = longer survival): 96 % of control
- T/C (endpoint: median survival time, dose: 6.3 mg/kg/injection, schedule: Q01DX011 (ip), vehicle: saline with Tween-80, higher = longer survival): 101 % of control
- T/C [4]: 88 % of control

SMILES: O=c1[nH]cc(F)c(=O)n1C1OC(CO)C(O)C1O (stereo not drawn)
- T/C (endpoint: mean tumor weight (est.), dose: 75.0 mg/kg/injection, schedule: Q01DX011 (ip), vehicle: saline, higher = larger tumour): 67 % of control
- T/C (endpoint: mean tumor weight (est.), dose: 150.0 mg/kg/injection, schedule: Q01DX011 (ip), vehicle: saline, higher = larger tumour): 99 % of control
- T/C (endpoint: mean tumor weight (est.), dose: 300.0 mg/kg/injection, schedule: Q01DX011 (ip), vehicle: saline, higher = larger tumour): 106 % of control
- T/C (endpoint: mean tumor weight (est.), dose: 600.0 mg/kg/injection, schedule: Q01DX011 (ip), vehicle: saline, higher = larger tumour): 82 % of control
- T/C (endpoint: mean tumor weight (est.), dose: 1200.0 mg/kg/injection, schedule: Q01DX011 (ip), vehicle: saline, higher = larger tumour): 84 % of control
- T/C (endpoint: median survival time, dose: 75.0 mg/kg/injection, schedule: Q01DX011 (ip), vehicle: saline, higher = longer survival): 107 % of control
- T/C (endpoint: median survival time, dose: 600.0 mg/kg/injection, schedule: Q01DX011 (ip), vehicle: saline, higher = longer survival): 98 % of control
- T/C (endpoint: median survival time, dose: 1200.0 mg/kg/injection, schedule: Q01DX011 (ip), vehicle: saline, higher = longer survival): 107 % of control

SMILES: Nc1nc(Cl)nc2c1ncn2C1CC(O)C(CO)O1 (stereo not drawn)
- T/C (endpoint: median survival time, dose: 8.0 mg/kg/injection, schedule: Q01DX Z (ip), vehicle: other, higher = longer survival): 93 % of control and 95 % of control
- T/C (endpoint: median survival time, dose: 16.0 mg/kg/injection, schedule: Q01DX Z (ip), vehicle: other, higher = longer survival): 113 % of control
- T/C (endpoint: median survival time, dose: 32.0 mg/kg/injection, schedule: Q01DX Z (ip), vehicle: other, higher = longer survival): 86 % of control

SMILES: Cc1cc2c3ccc(C)[n+](C)c3ccc2n1C
- T/C (endpoint: mean tumor weight (est.), dose: 0.6 mg/kg/injection, schedule: Q01DX011 (ip), vehicle: saline, higher = larger tumour): 81 % of control
- T/C (endpoint: mean tumor weight (est.), dose: 1.25 mg/kg/injection, schedule: Q01DX011 (ip), vehicle: saline, higher = larger tumour): 59 % of control
- T/C (endpoint: mean tumor weight (est.), dose: 2.5 mg/kg/injection, schedule: Q01DX011 (ip), vehicle: saline, higher = larger tumour): 110 % of control

SMILES: CC1([CH2][Hg][I])CS(=O)(=O)CC(C)([CH2][Hg][I])O1 (stereo not drawn)
- T/C (endpoint: mean tumor weight (est.), dose: 2.5 mg/kg/injection, schedule: Q01DX011 (ip), vehicle: saline with Tween-80, higher = larger tumour): 82 % of control
- T/C (endpoint: mean tumor weight (est.), dose: 5.0 mg/kg/injection, schedule: Q01DX011 (ip), vehicle: saline with Tween-80, higher = larger tumour): 89 % of control
- T/C (endpoint: mean tumor weight (est.), dose: 10.0 mg/kg/injection, schedule: Q01DX011 (ip), vehicle: saline with Tween-80, higher = larger tumour): 49 % of control
- T/C (endpoint: mean tumor weight (est.), dose: 20.0 mg/kg/injection, schedule: Q01DX011 (ip), vehicle: saline with Tween-80, higher = larger tumour): 47 % of control
- T/C (endpoint: median survival time, dose: 2.5 mg/kg/injection, schedule: Q01DX011 (ip), vehicle: saline with Tween-80, higher = longer survival): 94 % of control
- T/C (endpoint: median survival time, dose: 5.0 mg/kg/injection, schedule: Q01DX011 (ip), vehicle: saline with Tween-80, higher = longer survival): 98 % of control
- T/C (endpoint: median survival time, dose: 10.0 mg/kg/injection, schedule: Q01DX011 (ip), vehicle: saline with Tween-80, higher = longer survival): 112 % of control
- T/C (endpoint: median survival time, dose: 20.0 mg/kg/injection, schedule: Q01DX011 (ip), vehicle: saline with Tween-80, higher = longer survival): 100 % of control

SMILES: CCCCCCCCCCCCCCCC(=O)OCC1OC(n2ccc(N)nc2=O)C(O)C1O (stereo not drawn)
- T/C (endpoint: mean tumor weight (est.), dose: 7.5 mg/kg/injection, schedule: Q01DX009 (ip), vehicle: saline, higher = larger tumour): 76 % of control
- T/C (endpoint: mean tumor weight (est.), dose: 15.0 mg/kg/injection, schedule: Q01DX009 (ip), vehicle: saline, higher = larger tumour): 39 % of control
- T/C (endpoint: mean tumor weight (est.), dose: 25.0 mg/kg/injection, schedule: Q04DX003 (ip), vehicle: saline, higher = larger tumour): 67 % of control
- T/C (endpoint: mean tumor weight (est.), dose: 37.5 mg/kg/injection, schedule: Q01DX001 (ip), vehicle: saline, higher = larger tumour): 45 % of control
- T/C (endpoint: mean tumor weight (est.), dose: 50.0 mg/kg/injection, schedule: Q04DX003 (ip), vehicle: saline, higher = larger tumour): 19 % of control
- T/C (endpoint: mean tumor weight (est.), dose: 75.0 mg/kg/injection, schedule: Q01DX001 (ip), vehicle: saline, higher = larger tumour): 19 % of control
- T/C (endpoint: mean tumor weight (est.), dose: 150.0 mg/kg/injection, schedule: Q01DX001 (ip), vehicle: saline, higher = larger tumour): 46 % of control
- T/C (endpoint: median survival time, dose: 37.5 mg/kg/injection, schedule: Q01DX001 (ip), vehicle: saline, higher = longer survival): 93 % of control
- T/C (endpoint: median survival time, dose: 150.0 mg/kg/injection, schedule: Q01DX001 (ip), vehicle: saline, higher = longer survival): 113 % of control

SMILES: CC(=O)O[C@]1(C(C)=O)CC[C@H]2[C@@H]3C[C@H](C)C4=CC(=O)CC[C@]4(C)[C@H]3CC[C@@]21C
- T/C (endpoint: median survival time, dose: 50.0 mg/kg/injection, schedule: Q01DX009 (ip), vehicle: Klucel (hydroxypropylcellulose) (HPC), higher = longer survival): 90 % of control
- T/C (endpoint: median survival time, dose: 50.0 mg/kg/injection, schedule: Q01DX011 (ip), vehicle: Klucel (hydroxypropylcellulose) (HPC), higher = longer survival): 104 % of control and 109 % of control
- T/C (endpoint: median survival time, dose: 100.0 mg/kg/injection, schedule: Q01DX009 (ip), vehicle: Klucel (hydroxypropylcellulose) (HPC), higher = longer survival): 107 % of control
- T/C (endpoint: median survival time, dose: 100.0 mg/kg/injection, schedule: Q01DX011 (ip), vehicle: Klucel (hydroxypropylcellulose) (HPC), higher = longer survival): 104 % of control
- T/C (endpoint: median survival time, dose: 200.0 mg/kg/injection, schedule: Q01DX009 (ip), vehicle: Klucel (hydroxypropylcellulose) (HPC), higher = longer survival): 110 % of control
- T/C (endpoint: median survival time, dose: 200.0 mg/kg/injection, schedule: Q01DX011 (ip), vehicle: Klucel (hydroxypropylcellulose) (HPC), higher = longer survival): 107 % of control and 119 % of control
- T/C (endpoint: median survival time, dose: 400.0 mg/kg/injection, schedule: Q01DX009 (ip), vehicle: Klucel (hydroxypropylcellulose) (HPC), higher = longer survival): 114 % of control
- T/C (endpoint: median survival time, dose: 400.0 mg/kg/injection, schedule: Q01DX011 (ip), vehicle: Klucel (hydroxypropylcellulose) (HPC), higher = longer survival): 109 % of control and 123 % of control
- T/C (endpoint: median survival time, dose: 800.0 mg/kg/injection, schedule: Q01DX009 (ip), vehicle: Klucel (hydroxypropylcellulose) (HPC), higher = longer survival): 90 % of control

SMILES: O=[N+]([O-])c1cc(S(=O)(=O)OCC2CO2)ccc1Cl (stereo not drawn)
- T/C (endpoint: mean tumor weight (est.), dose: 6.25 mg/kg/injection, schedule: Q01DX011 (ip), vehicle: saline with Tween-80, higher = larger tumour): 66 % of control
- T/C [3]: 70 % of control
- T/C [1]: 47 % of control
- T/C (endpoint: median survival time, dose: 6.25 mg/kg/injection, schedule: Q01DX011 (ip), vehicle: saline with Tween-80, higher = longer survival): 100 % of control
- T/C [4]: 90 % of control
- T/C [2]: 101 % of control

SMILES: Nc1cc(S(N)(=O)=O)ccc1SSc1ccc(S(N)(=O)=O)cc1N
- T/C (endpoint: mean tumor weight (est.), dose: 62.5 mg/kg/injection, schedule: Q01DX011 (ip), vehicle: saline with Tween-80, higher = larger tumour): 65 % of control
- T/C (endpoint: mean tumor weight (est.), dose: 125.0 mg/kg/injection, schedule: Q01DX011 (ip), vehicle: saline with Tween-80, higher = larger tumour): 24 % of control
- T/C (endpoint: median survival time, dose: 62.5 mg/kg/injection, schedule: Q01DX011 (ip), vehicle: saline with Tween-80, higher = longer survival): 103 % of control
- T/C (endpoint: median survival time, dose: 125.0 mg/kg/injection, schedule: Q01DX011 (ip), vehicle: saline with Tween-80, higher = longer survival): 98 % of control

SMILES: CC(=O)c1c(O)c(C)c(O)c2c1OC1=CC(=O)C(C(C)=O)C(=O)C12C (stereo not drawn)
- T/C (endpoint: mean tumor weight, dose: 53.0 mg/kg/injection, schedule: Q01DX011 (ip), vehicle: other, higher = larger tumour): 110 % of control
- T/C (endpoint: mean tumor weight, dose: 79.0 mg/kg/injection, schedule: Q01DX011 (ip), vehicle: other, higher = larger tumour): 92 % of control
- T/C (endpoint: mean tumor weight, dose: 118.0 mg/kg/injection, schedule: Q01DX011 (ip), vehicle: other, higher = larger tumour): 105 % of control
- T/C (endpoint: mean tumor weight, dose: 177.0 mg/kg/injection, schedule: Q01DX011 (ip), vehicle: other, higher = larger tumour): 77 % of control
- T/C (endpoint: median survival time, dose: 53.0 mg/kg/injection, schedule: Q01DX011 (ip), vehicle: other, higher = longer survival): 98 % of control
- T/C (endpoint: median survival time, dose: 79.0 mg/kg/injection, schedule: Q01DX011 (ip), vehicle: other, higher = longer survival): 103 % of control
- T/C (endpoint: median survival time, dose: 177.0 mg/kg/injection, schedule: Q01DX011 (ip), vehicle: other, higher = longer survival): 96 % of control
